# Laboratory results reported in patent publication EP1263444B1, “USE OF XANTHINE DERIVATIVES FOR PREPARING A MEDICINE FOR PREVENTING AND TREATING OSTEOPOROSIS” (Aventis Pharma S.A., priority 2000, dated 2001).
# What was measured:
# Format in all cases: in vivo
# [1] = test system: rate ovariectomisée; assay: Bone mineral density (DEXA) of the left tibia in the ovariectomised rat osteopenia model, preventive treatment; conditions: 10 mg/kg po, once daily, 5 days/week for 4 weeks; (BMD treated - BMD OVX)/(BMD SHAM - BMD OVX) x 100
# Excerpt: (§1) L'impact osseux des dérivés de xanthine selon l'invention a été évalué sur un modèle d'ostéopénie, la rate ovariectomisée à l'âge de 3 mois, afin de déterminer son effet sur la masse osseuse, et sur l'activité de formation et de résorption osseuse sur ce modèle. Les animaux sont traités en préventif.
# (§2) Sur ce modèle d'ostéopénie l'effet d'un dérivé xanthine est comparé à celui de la PTH • Produit à tester : Le [1-(3-phénylxanthin-1-yl)méthyl] diméthylphosphine oxide • véhicule(s) : méthylcellulose 0,5 % ou sérum physiologique • dose(s) : 10 mg/kg pour le produit. la PTH est administrée à la dose de 10 et 25 µg/kg/j par voie sous cutanée • nombre d'administrations : une fois/jour; 5 jours/semaine pendant 4 semaines • voie d'administration : voie orale pour le produit. La PTH est administrée par voie sous cutanée • volume : 1 ml/kg p o et s c • délai entre l'injection et le sacrifice : 24 heures • nombre d'administrations : 20.
# (§3) Des rats femelles âgées de 3 mois et pesant environ 250-300 g sont ovariectomisées sous anesthésie à l'Imalgène 1000, à la dose de 100 mg/kg par voie intrapéritonéale (i.p) et sous un volume de 1 ml/kg. Ils reçoivent également du Nembutal (3 mg/kg i.p. sous un volume de 0,3 ml/kg). Les animaux sont répartis en groupes de 8 rats.
# (§4) Après incision latérale, les plans cutanés et musculaires sont sectionnés. L'exérèse de chaque ovaire se fait après ligature de l'oviducte. […]
# [2] = test system: rate ovariectomisée; assay: Serum cholesterol level in the ovariectomised rat model; conditions: 10 mg/kg po, 4 weeks, decrease of serum cholesterol in % versus OVX animals receiving solvent only
# Excerpt: as §1, §2, §3, §4
# [3] = test system: rate ovariectomisée; assay: Uterus weight in the ovariectomised rat model; conditions: 10 mg/kg po, 4 weeks, weight increase in % of uterus weight of OVX animals receiving solvent only
# Excerpt: as §1, §2, §3, §4
structure (smiles),measurement,setting,value
"CP(C)(=O)Cn1c(=O)c2[nH]cnc2n(-c2ccccc2)c1=O [Dérivé xanthine, [1-(3-phénylxanthin-1-yl)méthyl] diméthylphosphine oxide]",OS TIBIA Densité %,[1],40%
same,Cholestérol %,[2],Pas d'effet
same,Cholestérol %,[2]; listed as Ce produit,pas d'effet
same,UTERUS Poids %,[3],10%
same,UTERUS Poids %,[3]; listed as Ce produit,aucune activité utérotrophique
